Drawing on patent US6770728B2, “Process for preparing ocular lens with urethane compound and process for preparing urethane compound for medical instruments” (Menicon Co., Ltd., priority 1999, dated 2004), this text covers Solubility for one substance.

A short description of the data set: Solubility of catalysts in various solvents (maximum amount completely soluble). The class given is physicochemical. The method, then:
Solubility of a various kind of catalysts in a various kind of solvents (water, methanol, acetone, acetonitrile, n-hexane, methylene chloride) was evaluated by studying maximum amount of catalysts completely soluble in a various kind of solvents.

As for Zinc acetylacetonate [ZnAA], the Solubility (in general, how much of the substance goes into solution per volume) is 1000 µg/mL (solvent: acetone); “insoluble” (solvent: acetonitrile); 50000 µg/mL (solvent: methanol); 10000 µg/mL (solvent: methylene chloride); “insoluble” (solvent: n-hexane); “insoluble” (solvent: water).
